Assay results taken from EP0406111A1, “Substituted arylamines and heteroarylamines, process for their preparation and pharmaceutical composition containing them” (SOCIETE DE CONSEILS DE […] D'APPLICATIONS SCIENTIFIQUES …, priority 1989, dated 1991).
pIC50: −log10 of the molar value.

Experiments:
recapture de la dopamine = target: T1, recapture de la dopamine (Rattus norvegicus, UniProt P23977); assay: Inhibition of (3H)DA reuptake in primary cultured neurons (Example 39); format: cell-based; conditions: for Recapture de (³H)DA nH (nombre de Hill) / pIC50: cultured neurons from rat embryos; for pIC50: 10⁻⁸M (3H)DA, 10 min at 37°C, read-out: Recapture de (³H)DA IC 50
T1 construct: Cultures primaires de neurones; endogenous in cells; host or cells: primary neurons from substantia nigra of 14-day rat embryos
T1 sequence (P23977 whole entry): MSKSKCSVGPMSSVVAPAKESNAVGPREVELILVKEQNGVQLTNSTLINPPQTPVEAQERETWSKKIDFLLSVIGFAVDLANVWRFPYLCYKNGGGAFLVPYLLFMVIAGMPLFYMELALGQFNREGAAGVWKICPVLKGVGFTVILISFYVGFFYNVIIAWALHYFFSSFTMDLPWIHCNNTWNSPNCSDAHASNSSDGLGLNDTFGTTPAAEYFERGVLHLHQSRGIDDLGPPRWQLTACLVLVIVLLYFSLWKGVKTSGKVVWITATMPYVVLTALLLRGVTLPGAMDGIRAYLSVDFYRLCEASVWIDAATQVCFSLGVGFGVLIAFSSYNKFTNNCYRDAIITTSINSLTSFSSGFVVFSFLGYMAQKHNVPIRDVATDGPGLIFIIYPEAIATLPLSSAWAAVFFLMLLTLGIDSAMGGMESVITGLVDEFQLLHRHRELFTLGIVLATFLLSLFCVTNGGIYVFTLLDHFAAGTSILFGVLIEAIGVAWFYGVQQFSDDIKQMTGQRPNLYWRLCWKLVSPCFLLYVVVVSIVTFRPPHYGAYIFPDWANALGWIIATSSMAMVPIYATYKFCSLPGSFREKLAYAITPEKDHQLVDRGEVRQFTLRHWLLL
From the text: (§1) Exemple 39 : Etude de l'inhibition de la recapture de la dopamine et de la noradrénaline sur des neurones en culture.
(§2) a) Cultures primaires de neurones.
(§3) La substance noire, structure riche en cellules dopaminergiques, ou le locus coeruleus, contenant les corps cellulaires noradrénergiques, sont disséqués à partir d'embryons de rats de 14 jours, âge auquel les cellules ont terminé leur mitose. Les cellules sont dissociées mécaniquement dans un milieu sans calcium ni magnésium.
(§4) L'ensemencement est réalisé dans des puits prétraités avec de la D-polylysine, à une densité de 150 000 cellules/puits, dans 400µl de milieu de culture composé de 70% de M.E.M.; 25% de Hanks; 5% de Nu-serum décomplémenté; plus 3% de D-glucose (1/20).
(§5) Le milieu de culture est renouvelé au tiers tous les trois jours, jusqu'à 9 jours de développement "in vitro", âge auquel les cellules paraissent matures. A cet âge, la culture ne présente pas encore de cellule gliales.
(§6) b) Test d'inhibition de la recapture de la dopamine et de la noradrénaline.
(§7) On pré-incube les cellules obtenues en a) pendand 15min, à la température ambiante, avec 40µl d'un tampon constitué par le Ringer Phosphate-disodique 5 mM pH=7,6 dont la composition en concentrations finales est la suivante : NaCl 120mM; CaCl₂ 2,6 mM; MgCl₂ 1,3 mM; KCl 5mM; D-glucose 3 mM; Na₂HPO₄5mM.
(§8) On incube ensuite pendant 10min à 37°C avec le même tampon en présence de (³H)Da ou de (³H)NA à une concentration finale 10⁻⁸M et une dilution isotopique de 1/5, et de concentrations croissantes en composé à tester dans un volume final de 400µl.
(§9) On rince ensuite trois fois rapidement avec 750µl du même tampon à 4°C, ce qui correspond à une durée totale de 10 secondes.
(§10) On récupère alors les cellules dans 2 fois 500µl de NaOH 0,5N et on détermine leur radioactivité par comptage avec 4ml de scintillant et 50µl d'acide acétique glacial.
Avant les rinçages, on a prélevé un aliquote de 100µl du milieu d'incubation et on a déterminé la radioactivité libre sur celui-ci par comptage avec 5ml de scintillant.
La recapture spécifique de la (³H)DA ou de (³H)NA est déduite de la différence entre la recapture totale et la diffusion passive pour chacun des composés testés.

[1] = target: recapture de la noradrénaline (Rattus norvegicus, UniProt Q63380); assay: Inhibition of (3H)NA reuptake in primary cultured neurons (Example 39); format: cell-based; conditions: for Recapture de (³H)NA nH (nombre de Hill): cultured neurons from rat embryos
recapture de la noradrénaline, sequence (Q63380 1-617): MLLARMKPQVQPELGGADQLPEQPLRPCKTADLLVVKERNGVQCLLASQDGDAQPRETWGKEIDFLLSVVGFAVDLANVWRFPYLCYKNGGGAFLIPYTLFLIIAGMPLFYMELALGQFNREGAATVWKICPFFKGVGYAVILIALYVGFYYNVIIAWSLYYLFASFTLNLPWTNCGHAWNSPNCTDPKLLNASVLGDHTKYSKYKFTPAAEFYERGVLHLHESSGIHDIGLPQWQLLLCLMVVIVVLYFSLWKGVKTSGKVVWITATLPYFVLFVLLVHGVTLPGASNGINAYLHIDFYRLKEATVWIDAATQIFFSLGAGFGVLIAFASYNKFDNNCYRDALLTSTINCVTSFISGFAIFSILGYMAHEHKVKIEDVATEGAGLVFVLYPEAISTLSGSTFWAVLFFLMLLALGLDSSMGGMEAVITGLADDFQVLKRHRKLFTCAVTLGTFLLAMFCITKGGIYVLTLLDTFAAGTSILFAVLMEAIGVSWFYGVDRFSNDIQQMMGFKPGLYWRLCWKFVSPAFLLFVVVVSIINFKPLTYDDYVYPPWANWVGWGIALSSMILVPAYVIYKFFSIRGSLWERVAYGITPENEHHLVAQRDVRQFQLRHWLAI
From the text: as §1, §2, §3, §4, §5, §6, §7, §8, §9, §10
Avant les rinçages, on a prélevé un aliquote de 100µl du milieu d'incubation et on a déterminé la radioactivité libre sur celui-ci par comptage avec 5ml de scintillant. […]

| SMILES | Recapture de (³H)DA nH (nombre de Hill) (recapture de la dopamine) | pIC50 (recapture de la dopamine) | Recapture de la dopamine, result in words (recapture de la dopamine; cultured neurons) | Recapture de la noradrénaline, result in words ([1]; cultured neurons) | Recapture de (³H)NA nH (nombre de Hill) [1] |
| --- | --- | --- | --- | --- | --- |
| CC1CCCN(C2(c3cc4ccccc4s3)CCCCC2)C1 (stereo not drawn) [composé n^o 2, (benzo(b)thiophényl-2)-1 ((méthyl-3 pipéridino)-1)-1 cyclohexane] | 0,95 | 7.15 | – | – | – |
| OC1CCN(C2(c3cc4ccccc4s3)CCCCC2)CC1 [composé 26, (benzo(b)thiophényl-2)-1( (ol-4-pipéridino)-1)-1 cyclohexane] | 1,09 | 7.77 | – | – | – |
| CC1CC(C)CN(C2(c3cc4ccccc4s3)CCCCC2)C1 (stereo not drawn) [composé n^o 6, (benzo(b)thiophényl-2)-1 ((diméthyl-3,5 pipéridino)-1)-1 cyclohexane] | 0,95 | 8.83 | inhibiteur très puissant | inhibiteur très puissant | 1,2 |
| C[C@H]1CC[C@@](c2cc3ccccc3s2)(N2CCCCC2)CC1 [composé n^o 21, (benzo(b)thiophényl-2)-1 c-méthyl-4-r-(pipéridino-1)-1 cyclohexane] | 1,07 | 8.10 | – | – | – |
| CCCN(CCC)C1(c2cc3ccccc3s2)CCCCC1 [composé no 3, (benzo(b)thiophényl-2)-1 (dipropylamino-1)-1 cyclohexane] | – | – | – | – | 0,85 |
